Measured values published in US5187082A, “Process for producing A83850 antibiotics” (Eli Lilly and Company, priority 1990, dated 1993).
≈ marks a conversion by molar mass, not a printed value. Positions of bridges follow the written chain, without caps; N, C: chain ends. Non-standard residues stand in square brackets, D forms with d. Residues, ends and D or L forms follow the SMILES beside them. *: point of attachment. Ileψ(thiazoline)Cys = CC[C@H](C)[C@H](N)C1=N[C@H](C(=O)*)CS1; dOrn = NCCC[C@@H](N)C(=O)O

Assays:
[1] = tested on: Streptococcus pneumoniae Park 1; experiment: microbe, parasite or virus in culture; format: cell-based; settings: Streptococcus pneumoniae Park 1; agar dilution
Description: (§1) The MIC's in Table VII were determined by standard agar-dilution assays.

Bacteroides corrodens = experiment: Activity against anaerobic bacteria, agar-dilution MIC; format: cell-based; settings: Bacteroides corrodens; anaerobe, agar dilution, read after 24-hour incubation
[2] = tested on: Bacteriodes thetaiotaomicron; experiment: as above; settings: Bacteriodes thetaiotaomicron; anaerobe, agar dilution, read after 24-hour incubation
Peptococcus prevoti = experiment: as above; settings: Peptococcus prevoti; anaerobe, agar dilution, read after 24-hour incubation
Eubacterium aerofaciens = settings: anaerobe, agar dilution, read after 24-hour incubation
Propionibacterium acnes = experiment: Activity against anaerobic bacteria, agar-dilution MIC; format: cell-based; settings: Propionibacterium acnes; anaerobe, agar dilution, read after 24-hour incubation
[3] = tested on: Peptostreptococcus intermedius; experiment: as above; format: cell-based; settings: Peptostreptococcus intermedius; anaerobe, agar dilution, read after 24-hour incubation
[4] = tested on: Staphylococcus aureus V41; format: cell-based; settings: Staphylococcus aureus V41; agar dilution
Description: as §1

[5] = tested on: Enterococcus faecalis 2041; format: cell-based; settings: Enterococcus faecalis 2041; agar dilution
Description: as §1

Enterococcus faecium X66 = format: cell-based; settings: Enterococcus faecium X66; agar dilution
Description: as §1

[6] = tested on: Staphylococcus aureus X1.1; format: cell-based; settings: Staphylococcus aureus X1.1; agar dilution
Description: as §1

[7] = tested on: Staphylococcus aureus X400; format: cell-based; settings: Staphylococcus aureus X400; agar dilution
Description: as §1

[8] = tested on: Streptococcus pyogenes C203; format: cell-based; settings: Streptococcus pyogenes C203; agar dilution
Description: as §1

[9] = tested on: Staphylococcus epidermidis 270; format: cell-based; settings: Staphylococcus epidermidis 270; agar dilution
Description: as §1

[10] = tested on: Staphylococcus epidermidis 222; format: cell-based; settings: Staphylococcus epidermidis 222; agar dilution
Description: as §1

Fusobacterium symbiosum = settings: anaerobe, agar dilution, read after 24-hour incubation
[11] = tested on: Bacteriodes melaninogenicus; experiment: Activity against anaerobic bacteria, agar-dilution MIC; format: cell-based; settings: Bacteriodes melaninogenicus; anaerobe, agar dilution, read after 24-hour incubation
Clostridium difficile = experiment: as above; settings: Clostridium difficile; anaerobe, agar dilution, read after 24-hour incubation
Staphylococcus aureus = experiment: In vivo activity against experimentally-induced infection in mice; settings: doses administered subcutaneously to mice 1 and 4 hours postinfection
Description: (§2) The A83850 antibiotics have also shown in vivo antimicrobial activity against experimentally-induced infections in laboratory animals. When two doses of test compound were administered to mice experimentally infected with the test organism, the activity observed was measured as an ED50 value [effective dose in mg/kg to protect 50% of the test animals: see Warren Wick, et al., J. Bacteriol. 81, 233-235 (1961)].
(§3) ^a mg/kg × 2; doses administered subcutaneously to mice 1 and 4

Streptococcus pyogenes = experiment: as above; settings: doses administered subcutaneously to mice 1 and 4 hours postinfection
Description: as §2, §3

Streptococcus pneumoniae = experiment: as above; settings: doses administered subcutaneously to mice 1 and 4 hours postinfection
Description: as §2, §3

[12] = tested on: Peptococcus asaccharolyticus; experiment: Activity against anaerobic bacteria, agar-dilution MIC; settings: Peptococcus asaccharolyticus; anaerobe, agar dilution, read after 24-hour incubation
Clostridium perfringens = settings: anaerobe, agar dilution, read after 24-hour incubation
Bacteriodes fragilis = experiment: Activity against anaerobic bacteria, agar-dilution MIC; format: cell-based; settings: Bacteriodes fragilis; anaerobe, agar dilution, read after 24-hour incubation
[13] = tested on: Peptostreptococcus anaerobius; experiment: as above; format: cell-based; settings: anaerobe, agar dilution, read after 24-hour incubation
Clostridium septicum = settings: anaerobe, agar dilution, read after 24-hour incubation
[14] = tested on: Fusobacterium necrophorum; settings: anaerobe, agar dilution, read after 24-hour incubation
Bacteriodes vulgatis = experiment: Activity against anaerobic bacteria, agar-dilution MIC; settings: Bacteriodes vulgatis; anaerobe, agar dilution, read after 24-hour incubation
[15] = tested on: Culture A83850 (Amycolatopsis albus NRRL 18532); experiment: Resistance of culture A83850 to antibiotics, sensitivity discs on seeded ISP No. 2 agar plates; format: cell-based; settings: disc content printed per antibiotic
Description: Resistance to antibiotics was measured by padding antibiotic sensitivity discs onto the surface of seeded ISP No. 2 agar plates.

Row | Compound | MIC [1] [µg/mL] | MIC [4] [µg/mL] | MIC [5] [µg/mL] | MIC (Enterococcus faecium X66) [µg/mL] | MIC [6] [µg/mL] | MIC [7] [µg/mL] | MIC [8] [µg/mL] | MIC [9] [µg/mL] | MIC [10] [µg/mL] | ED50 Value (Staphylococcus aureus) [mg/kg × 2] | ED50 Value (Streptococcus pyogenes) [mg/kg × 2] | ED50 Value (Streptococcus pneumoniae) [mg/kg × 2] | Resistance or inhibition of culture A83850 by antibiotic disc [15] | also measured
1 | CC(C)C[C@H](C(=O)N[C@H]1C(=O)N[C@@H](CC(N)=O)C(=O)N[C@H]2C(=O)N[C@H]3C(=O)N[C@H](C(=O)N[C@H](C(=O)O)c4cc(O)cc(O)c4-c4cc3ccc4O)[C@H](O)c3ccc(c(Cl)c3)Oc3cc2cc(c3O[C@@H]2O[C@H](CO)[C@@H](O)[C@H](O)[C@H]2O[C@H]2C[C@](C)(N)C(=O)[C@H](C)O2)Oc2ccc(cc2Cl)[C@H]1O)N(C)C [A83850A] | 1.0 (≈ 0.684 µM) | 2.0 (≈ 1.37 µM) | 8.0 (≈ 5.47 µM) | 2.0 (≈ 1.37 µM) | 1.0 (≈ 0.684 µM) | 2.0 (≈ 1.37 µM) | 1.0 (≈ 0.684 µM) | 4.0 (≈ 2.74 µM) | 2.0 (≈ 1.37 µM) | 2.87 | 3.62 | 2.73 | – | MIC (Bacteroides corrodens): 32 µg/mL (≈ 21.9 µM); MIC [2]: 64 µg/mL (≈ 43.8 µM); MIC (Peptococcus prevoti): 16 µg/mL (≈ 10.9 µM); MIC (Eubacterium aerofaciens): 2 µg/mL (≈ 1.37 µM); MIC (Propionibacterium acnes): 8.0 µg/mL (≈ 5.47 µM); MIC [3]: 2.0 µg/mL (≈ 1.37 µM); MIC (Fusobacterium symbiosum): 4 µg/mL (≈ 2.74 µM); MIC [11]: 16 µg/mL (≈ 10.9 µM); MIC (Clostridium difficile): 4 µg/mL (≈ 2.74 µM); MIC [12]: 16 µg/mL (≈ 10.9 µM); MIC (Clostridium perfringens): 2 µg/mL (≈ 1.37 µM); MIC (Bacteriodes fragilis): 16.0 to 32.0 µg/mL; MIC [13]: 32 µg/mL (≈ 21.9 µM); MIC (Clostridium septicum): 2 µg/mL (≈ 1.37 µM); MIC [14]: 1.0 µg/mL (≈ 0.684 µM); MIC (Bacteriodes vulgatis): 16 µg/mL (≈ 10.9 µM)
2 | CN[C@H](CC(C)C)C(=O)N[C@H]1C(=O)N[C@@H](CC(N)=O)C(=O)N[C@H]2C(=O)N[C@H]3C(=O)N[C@H](C(=O)N[C@H](C(=O)O)c4cc(O)cc(O)c4-c4cc3ccc4O)[C@H](O)c3ccc(c(Cl)c3)Oc3cc2cc(c3O[C@@H]2O[C@H](CO)[C@@H](O)[C@H](O)[C@H]2O[C@H]2C[C@](C)(N)C(=O)[C@H](C)O2)Oc2ccc(cc2Cl)[C@H]1O [A83850B] | 0.125 (≈ 0.0864 µM) | 1.0 (≈ 0.691 µM) | 4.0 (≈ 2.76 µM) | 1.0 (≈ 0.691 µM) | 0.5 (≈ 0.345 µM) | 1.0 (≈ 0.691 µM) | 0.5 (≈ 0.345 µM) | 1.0 (≈ 0.691 µM) | 1.0 (≈ 0.691 µM) | 2.87 | 2.19 | 0.98 | – | MIC (Bacteroides corrodens): 32 µg/mL (≈ 22.1 µM); MIC [2]: 64 µg/mL (≈ 44.2 µM); MIC (Peptococcus prevoti): 2 µg/mL (≈ 1.38 µM); MIC (Eubacterium aerofaciens): 2 µg/mL (≈ 1.38 µM); MIC (Propionibacterium acnes): 8.0 µg/mL (≈ 5.53 µM); MIC [3]: 2.0 µg/mL (≈ 1.38 µM); MIC (Fusobacterium symbiosum): 2 µg/mL (≈ 1.38 µM); MIC [11]: 32 µg/mL (≈ 22.1 µM); MIC (Clostridium difficile): 2 µg/mL (≈ 1.38 µM); MIC [12]: 2 µg/mL (≈ 1.38 µM); MIC (Clostridium perfringens): 2 µg/mL (≈ 1.38 µM); MIC (Bacteriodes fragilis): 16.0 to 32.0 µg/mL; MIC [13]: 16 µg/mL (≈ 11.1 µM); MIC (Clostridium septicum): 1.0 µg/mL (≈ 0.691 µM); MIC [14]: 1.0 µg/mL (≈ 0.691 µM); MIC (Bacteriodes vulgatis): 16 µg/mL (≈ 11.1 µM)
3 | CC(C)C[C@H](C(=O)N[C@H]1C(=O)N[C@@H](CC(N)=O)C(=O)N[C@H]2C(=O)N[C@H]3C(=O)N[C@H](C(=O)N[C@H](C(=O)O)c4cc(O)cc(O)c4-c4cc3ccc4O)[C@H](O)c3ccc(c(Cl)c3)Oc3cc2cc(c3O[C@@H]2O[C@H](CO)[C@@H](O)[C@H](O)[C@H]2O[C@H]2C[C@](C)(N)[C@@H](O)[C@H](C)O2)Oc2ccc(cc2Cl)[C@H]1O)N(C)C [Reduced A83850A] | 0.25 (≈ 0.171 µM) | 2.0 (≈ 1.37 µM) | 8.0 (≈ 5.47 µM) | 2.0 (≈ 1.37 µM) | 2.0 (≈ 1.37 µM) | 2.0 (≈ 1.37 µM) | 2.0 (≈ 1.37 µM) | 4.0 (≈ 2.73 µM) | 4.0 (≈ 2.73 µM) | 7.10 | 2.30 | 3.88 | – | –
4 | CN[C@H](CC(C)C)C(=O)N[C@H]1C(=O)N[C@@H](CC(N)=O)C(=O)N[C@H]2C(=O)N[C@H]3C(=O)N[C@H](C(=O)N[C@H](C(=O)O)c4cc(O)cc(O)c4-c4cc3ccc4O)[C@H](O)c3ccc(c(Cl)c3)Oc3cc2cc(c3O[C@@H]2O[C@H](CO)[C@@H](O)[C@H](O)[C@H]2O[C@H]2C[C@](C)(N)[C@@H](O)[C@H](C)O2)Oc2ccc(cc2Cl)[C@H]1O [Reduced A83850B] | 0.125 (≈ 0.0863 µM) | 1.0 (≈ 0.69 µM) | 4.0 (≈ 2.76 µM) | 1.0 (≈ 0.69 µM) | 1.0 (≈ 0.69 µM) | 1.0 (≈ 0.69 µM) | 0.5 (≈ 0.345 µM) | 2.0 (≈ 1.38 µM) | 2.0 (≈ 1.38 µM) | 2.12 | 1.36 | 1.99 | – | –
5 | CC[C@H](C)[C@H](N)C1=N[C@H](C(=O)N[C@@H](CC(C)C)C(=O)N[C@H](CCC(=O)O)C(=O)N[C@H](C(=O)N[C@H]2CCCCNC(=O)[C@H](CC(N)=O)NC(=O)[C@@H](CC(=O)O)NC(=O)[C@H](Cc3cnc[nH]3)NC(=O)[C@@H](Cc3ccccc3)NC(=O)[C@H]([C@@H](C)CC)NC(=O)[C@@H](CCCN)NC2=O)[C@@H](C)CC)CS1 [bacitracin] ({Ileψ(thiazoline)Cys}-L[dE]IK[dOrn]I[dF]H[dD]N; lactam 4-C) | – | – | – | – | – | – | – | – | – | – | – | – | resistant | –
6 | CC(=O)OCC1=C(C(=O)O)N2C(=O)[C@@H](NC(=O)Cc3cccs3)[C@H]2SC1 [cephalothin] | – | – | – | – | – | – | – | – | – | – | – | – | inhibited | –
7 | CCC[C@@H]1C[C@@H](C(=O)N[C@@H]([C@H]2O[C@H](SC)[C@H](O)[C@@H](O)[C@H]2O)[C@@H](C)O)N(C)C1 [lincomycin] | – | – | – | – | – | – | – | – | – | – | – | – | inhibited | –
